The values that follow come from patent publication US7718641B2, “Pyrrolo [3,4-H] isoquinoline compounds and methods for modulating gated ion channels” (Aros Pharma ApS, priority 2005, dated 2010).

In this assay the target is T1, heteromeric hASIC1a+3 (Homo sapiens, UniProt P78348+Q9UHC3).
T1 sequence (P78348 1-528): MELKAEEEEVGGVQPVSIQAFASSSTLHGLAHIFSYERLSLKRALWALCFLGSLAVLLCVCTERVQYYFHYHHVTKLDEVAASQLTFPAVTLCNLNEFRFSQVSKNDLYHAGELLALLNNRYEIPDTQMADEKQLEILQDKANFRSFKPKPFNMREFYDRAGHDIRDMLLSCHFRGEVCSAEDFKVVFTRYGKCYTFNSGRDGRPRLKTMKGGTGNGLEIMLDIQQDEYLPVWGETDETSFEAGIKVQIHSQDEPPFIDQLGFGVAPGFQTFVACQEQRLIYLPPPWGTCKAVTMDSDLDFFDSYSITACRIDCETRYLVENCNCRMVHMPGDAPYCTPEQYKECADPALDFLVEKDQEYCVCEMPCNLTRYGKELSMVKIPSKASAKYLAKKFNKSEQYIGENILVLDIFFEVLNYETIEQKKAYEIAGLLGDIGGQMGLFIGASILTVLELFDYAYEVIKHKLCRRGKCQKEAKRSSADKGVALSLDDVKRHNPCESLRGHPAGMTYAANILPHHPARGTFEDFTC
T1 sequence (Q9UHC3 1-531): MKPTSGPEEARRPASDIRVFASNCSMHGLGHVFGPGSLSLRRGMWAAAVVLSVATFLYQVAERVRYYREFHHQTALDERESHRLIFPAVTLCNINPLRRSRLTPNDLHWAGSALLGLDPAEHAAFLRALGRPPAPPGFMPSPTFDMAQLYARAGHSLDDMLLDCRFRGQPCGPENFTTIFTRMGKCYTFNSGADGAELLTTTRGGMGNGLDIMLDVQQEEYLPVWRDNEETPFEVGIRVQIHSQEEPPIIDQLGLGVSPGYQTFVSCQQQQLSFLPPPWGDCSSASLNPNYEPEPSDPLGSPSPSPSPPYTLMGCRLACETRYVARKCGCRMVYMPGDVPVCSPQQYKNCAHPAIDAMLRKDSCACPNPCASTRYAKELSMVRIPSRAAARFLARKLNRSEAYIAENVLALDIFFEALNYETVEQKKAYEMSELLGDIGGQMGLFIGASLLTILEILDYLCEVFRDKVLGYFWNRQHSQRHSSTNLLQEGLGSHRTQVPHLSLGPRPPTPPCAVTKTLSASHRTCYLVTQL
In words: Whole-cell patch clamp of HEK293 cells co-expressing hASIC1a and hASIC3. Format: cell-based. More on the design: expressed in transfected cells; host or cells: HEK293. Particulars: 10 μM, HEK293, -60 mV, pH 7.4 to pH 6.5 for 5 sec, n=3. Here is the method: HEK293 cells were transfected either with hASIC1a alone or co-transfected with hASIC1a and hASIC3. Acid-induced inward currents were recorded in the presence and absence of compound A (10 μM) using the whole-cell configuration of the patch-clamp method (voltage clamp mode).
All experiments are performed at room temperature (20-25° C.) in voltage clamp using conventional whole cell patch clamp methods (Neher, E., et al. (1978) Pfluegers Arch 375:219-228).
Coverslips with the cells are transferred to a 15 μl experimental chamber mounted on the stage of an inverted microscope (IMT-2, Olympus) supplied with Nomarski optics. […] The cells are held at a holding voltage of −60 mV and at the start of each experiment the current is continuously measured for 45 s to ensure a stable baseline. […] Current amplitudes are measured at the peak of the responses, and effect of the compounds is calculated as the amplitude at compound equilibrium divided by the amplitude of the current evoked by the pulse just before the compound was included. […]
FIGS. 4A and 4B show response to acidic saline in the absence or presence of 10 μM of Compound A recorded from HEK293 cells expressing either hASIC1a alone or HEK293 cells co-expressing hASIC1a and hASIC3 [voltage clamped at −60 mV, extracellular solution surrounding cells was changed rapidly from pH 7.4 to pH 6.5 for 5 sec] […]
For orientation: In patch-clamp work, channel activity is measured electrically.

Turning to `COc1ccc(F)cc1-c1cc2c(c3c1CCN(C)C3)NC(=O)/C2=N/O` [Compound A, 5-(5-fluoro-2-methoxyphenyl)-6,7,8,9-tetrahydro-3-(hydroxyimino)-8-methyl-1H-pyrrolo[3,2-h]isoquinoline-2(3H)-one], the “effect on acid-induced inward current, hASIC1a and hASIC3 co-expressed” value was “effectively modulates the activity”.
